Measurements from US4987139A, “FK-520 microbial transformation product” (Merck & Co., Inc., priority 1989, dated 1991).
“Also recorded” adds a separate entry of the source. Where two headings read alike, the source gives them in different places. Values belong to the compound of their own block, whether it stands above or below them.

Experiments:
[1] = reputed; EPO Publication No. 0184162; cited from earlier work
mouse T lymphocytes = assay: T-cell proliferation assay (ionomycin plus PMA induced T-cell stimulation, tritiated thymidine uptake); type: cell-based, mouse (C57B1/6); settings: for IC50: T-cell proliferation
Protocol: The principle of this assay is to measure the proliferation of mouse T lymphocytes stimulated with the combination of ionomycin plus PMA. A positive sample in this assay will inhibit T-cell proliferation, as indicated by reduced tritiated thymidine uptake.
Purified L-687,795, as prepared by HPLC above, was dissolved in absolute ethanol at 10 mg/ml.
Spleens from C57B1/6 mice were taken under sterile conditions and gently dissociated in ice-cold RPMI 1640 culture medium (GIBCO, Grand Island, N.Y.) supplemented with 10% heat-inactivated fetal calf serum (GIBCO). Cells were pelleted by centrifugation at 1500 rpm for 8 minutes. Contaminating red cells were removed by treating the pellet with ammonium chloride lysing buffer (GIBCO) for 2 minutes at 4° C. Cold medium was added and cells were again centrifuged at 1500 rpm for 8 minutes. T lymphocytes were then isolated by separation of the cell suspension on nylon wool columns as follows: Nylon wool columns were prepared by packing approximately 4 grams of washed and dried nylon wool into 20 ml plastic syringes. The columns were sterilized by autoclaving at 250° F for 30 minutes. Nylon wool columns were wetted with warm (37° C) culture medium and rinsed with the same medium. Washed spleen cells resuspended in warm medium were slowly applied to the nylon wool. The columns were then incubated in an upright position at 37° C for 1 hour. Non-adherent T lymphocytes were eluted from the columns with warm culture medium and the cell suspensions were spun as above.
Purified T lymphocytes were resuspended at 2.5×10^5 cells/ml in complete culture medium composed of RPMI 1640 medium with 10% heat-inactivated fetal calf serum, […], 1 mM sodium pyruvate, 2×10^-5 M 2-mercaptoethanol and 50 μg/ml gentamycin. Ionomycin was added at 250 ng/ml and PMA at 10 ng/ml. The cell suspension was immediately distributed into 96 well flat-bottom microculture plates (Costar) at 200 μl/well. The control, being the medium without test drug, and various below-indicated dilutions of the sample (above-describedpurified L-687,795) to be tested were then added in triplicate wells at 20 μl/well. L-683,590 was used as a standard. The culture plates were then incubated at 37° C. in a humidified atmosphere of 5% CO2 -95% air for 44 hours. The proliferation of T lymphocytes was assessed by measurement of tritiated thymidine incorporation. After 44 hours of culturing, the cells were pulse-labelled with 2 μ Ci/well of tritiated thymidine (NEN, Cambridge, MA). After another 4 hours of incubation, cultures were harvested on glass fiber filters using a multiple sample harvester. Radioactivity of filter discs corresponding to individual wells was measured by standard liquid scintillation counting methods (Betacounter). Mean counts per minute of replicate wells were calculated and the results expressed as percent inhibition of tritiated thymidine uptake (proliferation) as follows: [formula]
1. Mouse T cell cultures were pulsed with ^3 Hthymidine for 4 hours
prior to harvesting at 48 hours.

[2] = Solubility (physical characteristics); type: physicochemical; settings: methanol

SMILES: C=CC[C@@H]1/C=C(\C)C[C@H](C)C[C@H](OC)[C@H]2O[C@@](O)(C(=O)C(=O)N3CCCC[C@H]3C(=O)O[C@H](/C(C)=C/[C@@H]3CC[C@@H](O)[C@H](OC)C3)[C@H](C)[C@@H](O)CC1=O)[C@H](C)C[C@@H]2OC [FK-506]
times more effective than cyclosporin [1]: 100 times

Solubility [2]: Solubility in methanol
SMILES: CCC1C=C(C)CC(C)CC(O)C(O)C2CC(C)C(O)(O2)C(=O)C(=O)N2CCCCC2C(=O)OC(C(C)=CC2CCC(O)C(O)C2)C(C)C(O)CC1=O [L-687,795]
Inhibition of proliferation on addition of recombinant human IL2 (mouse T lymphocytes; 50 units/m recombinant human IL2 added at initiation of culture): reversed
inhibition at 0.39 µg/mL (mouse T lymphocytes; Mus musculus, T-lymphocyte, 390 ng/ml, ionomycin + PMA, 48 h): 0%
inhibition at 0.57 µg/mL (mouse T lymphocytes; Mus musculus, T-lymphocyte, 570 ng/ml, ionomycin + PMA, 48 h): 2%
inhibition at 0.87 µg/mL (mouse T lymphocytes; Mus musculus, T-lymphocyte, 870 ng/ml, ionomycin + PMA, 48 h): 29%
inhibition at 1.3 µg/mL (mouse T lymphocytes; Mus musculus, T-lymphocyte, 1,300 ng/ml, ionomycin + PMA, 48 h): 60%
inhibition at 1.9 µg/mL (mouse T lymphocytes; Mus musculus, T-lymphocyte, 1,900 ng/ml, ionomycin + PMA, 48 h): 78%
inhibition at 2.9 µg/mL (mouse T lymphocytes; Mus musculus, T-lymphocyte, 2,900 ng/ml, ionomycin + PMA, 48 h): 81%
inhibition at 4.4 µg/mL (mouse T lymphocytes; Mus musculus, T-lymphocyte, 4,400 ng/ml, ionomycin + PMA, 48 h): 88%
inhibition at 6.6 µg/mL (mouse T lymphocytes; Mus musculus, T-lymphocyte, 6,600 ng/ml, ionomycin + PMA, 48 h): 90%
inhibition at 10 µg/mL (mouse T lymphocytes; Mus musculus, T-lymphocyte, 10,000 ng/ml, ionomycin + PMA, 48 h): 91%
IC50 (mouse T lymphocytes; Mus musculus, T-lymphocyte, general range, read-out: IC50, generally in the range of): 1000 to 1400 nM
IC50 (mouse T lymphocytes; Mus musculus, T-lymphocyte, read-out: IC50): 1190 nM
inhibition of T-cell activation / immunosuppressive activity by the T-cell proliferation assay (mouse T lymphocytes; qualitative): positive inhibition of T-cell activation; also recorded: positive immunosuppressive activity

SMILES: CC[C@@H]1/C=C(\C)C[C@H](C)C[C@H](OC)[C@H]2O[C@@](O)(C(=O)C(=O)N3CCCC[C@H]3C(=O)O[C@H](/C(C)=C/[C@@H]3CC[C@@H](O)[C@H](OC)C3)[C@H](C)[C@@H](O)CC1=O)[C@H](C)C[C@@H]2OC [L-683,590, reference compound]
inhibition at 0.01 µg/mL (mouse T lymphocytes; Mus musculus, T-lymphocyte, 10 ng/ml, standard): 99%
